Test system: pepper plants
Assay: Pot spray test of defoliants on pepper plants (defoliation rate and fruit abscission rate)
Assay type: in vivo
Details: sprayed once
Method: 1 Test temperature and humidity
The defoliant listed in Table 1 is diluted to a certain extent for application. See Table 2 for the active constituents and dilution factor of the defoliant.
100X, 160X and 400X dilution of the C12-C14 fatty alcohol polyoxyethylene (5) ether refers to 100X, 160X and 400X dilution of the defoliant listed in Table 1 containing an active constituent of C12-C14 fatty alcohol polyoxyethylene (5) ether. 160X+1400X dilution of the C12-C14 fatty alcohol polyoxyethylene (5) ether+40% ethephon refers to 160X dilution of the defoliant listed in Table 1 containing an active constituent of C12-C14 fatty alcohol polyoxyethylene (5) ether and mixture with 40% ethephon subject to 1400X dilution, equivalent to that the mixed solution contains 0.5% of C12-C14 fatty alcohol polyoxyethylene (5) ether and 0.029% of ethephon.
A total of 7 treatment plots (including 1 for control group, with water) are arranged for the test, each including 5 pots.
Spray method. The test reagent is prepared according to the design requirements, and then applied once to each treatment plot by uniformly spraying it onto each pot as per 100 ml/m^2 of water consumption, while ensuring consistent spray onto each treatment plot and sufficient spray to cover the whole plant.
Investigating the total number of treated leaves and fruits of each plant before application of the reagent, and 3 days, 5 days, 7 days, 20 days and 25 days after the application, calculating the defoliation rate and observing the influence on fruits.
Adding fixedly 150 ml of water to each pot each time.
According to the investigated data, calculating the defoliation rate as per equation (1), in the unit of percentage (%), rounded to two decimal places.
(1) Defoliation rate (%)=(total number of treated leaves—number of remaining leaves)/total number of treated leaves.
(2) Corrected defoliation rate (%)=(defoliation rate of the treatment plot—defoliation rate of the control group)/(1-defoliation rate of the control group)*100.
If the defoliation rate of the control group <5%, correction is not required; otherwise, the result should be corrected as per equation (2).
(3) Fruit abscission rate (%)=(total number of treated fruits—number of remaining fruits)/total number of treated fruits.
The defoliation effect on the pepper plants is analyzed through comparison of the results of the pots before and after application of the reagent and the control group.

[1] = 100X dilution of Table 1 defoliant
[2] = 160X dilution of Table 1 defoliant
[3] = 400X dilution of Table 1 defoliant

Substance | Defoliation rate 3 days after application [1] [%] | Defoliation rate 5 days after application [1] [%] | Defoliation rate 7 days after application [1] [%] | Defoliation rate 20 days after application [1] [%] | Defoliation rate 25 days after application [1] [%] | Defoliation rate 3 days after application [2] [%] | Defoliation rate 5 days after application [2] [%] | Defoliation rate 7 days after application [2] [%] | Defoliation rate 20 days after application [2] [%] | Defoliation rate 25 days after application [2] [%] | Defoliation rate 3 days after application [3] [%] | Defoliation rate 5 days after application [3] [%] | Defoliation rate 7 days after application [3] [%] | Defoliation rate 20 days after application [3] [%] | Defoliation rate 25 days after application [3] [%]
Straight-chain C12-14 fatty alcohol polyoxyethylene (5) ether [Treatment 3] | 54.46 | 68.84 | 86.02 | 69.02 | 35.12 | 38.84 | 43.16 | 64.73 | 56.79 | 35.09 | 6.99 | 10.84 | 15.88 | 27.07 | 8.36
Isomeric C13 fatty alcohol polyoxyethylene (5) ether [Treatment 4] | 23.88 | 40.42 | 66.7 | 64.66 | 16.35 | 14.35 | 16.59 | 25.25 | 27.79 | 7.78 | −3.15 | −2.02 | 5.81 | 8.88 | −2.16
Full branched-chain C12 fatty alcohol polyoxyethylene (5) ether [Treatment 2] | 72.15 | 87.4 | 100 | 84.33 | 75.8 | 74.69 | 85.12 | 93.59 | 72.18 | 18.07 | 5.58 | 16.17 | 21.83 | 32.56 | 7.88
C12-C14 fatty alcohol polyoxyethylene (5) ether [Treatment 1] | 60.03 | 78.72 | 94.97 | 69.9 | 18.42 | 66.25 | 70.63 | 79.71 | 73.64 | 51.64 | −1.46 | 4.66 | 14.5 | 26.17 | 17.95

Reference: patent US20220408725A1, “NEW DEFOLIANT AND APPLICATION THEREOF” (CHENGDU NEWSUN CROP SCIENCE CO., LTD., priority 2020, published 2022)
